Measured values from patent US5834453A, “Methods for the manufacture and use of antimicrobial sterol conjugates” (Lehigh University, priority 1997, dated 1998).
Converted amounts (≈) assume the structure as drawn. “Also recorded” adds a separate entry of the source.

What was measured:
[1] = tested on: Aspergillus fumigatus; test: MIC against clinical isolates; type: cell-based; details: 24 h; clinical isolates of Aspergillus fumigatus
Description: (§1) The antimicrobial activity of the compounds according to the present invention were compared with the results obtained for squalamine as reported in Proc. Nat. Acad. Sci. USA 90:1354 (1993), supra, the disclosure of which is incorporated in toto herein. The data reported in the following table is the minimum inhibitory concentration (MIC) required for complete inhibition of microbial growth. The MIC was determined utilizing known micro-broth dilution methods in which inocula of 10^6 /ml of the test organism were incubated in 0.5× trypticase soy broth at 35° C. for 24 hours. MIC's were also tested under various pH conditions, with calcium chloride or magnesium chloride, or with immobilized horse serum.
(§2) The numbers in parentheses contained in the table correspond to accession numbers with the American Type Culture Collection (reference strains were either obtained from the American Type Culture Collection or from the Microbiology Laboratory at Memorial Sloan-Kettering Cancer Center; Bacterial strains were maintained on Columbia 5% sheep blood agar plates, and fungi were maintained on Sabouraud Dextrose agar plates).

[2] = tested on: Cryptococcus neoformans; test: MIC against clinical isolates; type: cell-based; details: 24 h; clinical isolates of Cryptococcus neoformans
Description: as §1, §2

[3] = tested on: S. aureus (25923); test: MIC, micro-broth dilution; type: cell-based; details: Staphylococcus aureus, 35° C., 24 hours, read-out: ANTIMICROBIAL ACTIVITY (MIC)
Outline: (§3)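 MIC = complete inhibition of growth; micro-broth dilution, 10^6 /ml inoculum, 0.5× trypticase soy broth, 35° C, 24 h.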

[4] = tested on: C. albicans (90028); test: MIC, micro-broth dilution; type: cell-based; details: Candida albicans, 35° C., 24 hours, read-out: ANTIMICROBIAL ACTIVITY (MIC)
Outline: as §3

[5] = tested on: S. epidermidis (12228); test: MIC, micro-broth dilution; type: cell-based; details: Staphylococcus epidermidis, 35° C., 24 hours, read-out: ANTIMICROBIAL ACTIVITY (MIC)
Outline: as §3

[6] = tested on: E. faecium (T6480-9); test: MIC, micro-broth dilution; type: cell-based; details: Enterococcus faecium, 35° C., 24 hours, read-out: ANTIMICROBIAL ACTIVITY (MIC)
Outline: as §3

[7] = tested on: C. neoformans (M68979); test: MIC, micro-broth dilution; type: cell-based; details: Cryptococcus neoformans, 24 h, read-out: ANTIMICROBIAL ACTIVITY (MIC)
Outline: as §3

[8] = tested on: S. pyrogenes (19615); test: MIC, micro-broth dilution; type: cell-based; details: 24 h, read-out: ANTIMICROBIAL ACTIVITY (MIC)
Outline: as §3

[9] = tested on: S. pneumoniae (6305); test: MIC, micro-broth dilution; type: cell-based; details: Streptococcus pneumoniae, 35° C., 24 hours, read-out: ANTIMICROBIAL ACTIVITY (MIC)
Outline: as §3

[10] = tested on: P. aeruginosa (2853); test: MIC, micro-broth dilution; type: cell-based; details: Pseudomonas aeruginosa, 24 h, read-out: ANTIMICROBIAL ACTIVITY (MIC)
Outline: as §3

[11] = tested on: S. marcescens (13880); test: MIC, micro-broth dilution; type: cell-based; details: for MIC: Serratia marcescens, 24 h, read-out: ANTIMICROBIAL ACTIVITY (MIC)
Outline: as §3

[12] = tested on: P. vulgaris (13315); test: MIC, micro-broth dilution; type: cell-based; details: Proteus vulgaris, 35° C., 24 hours, read-out: ANTIMICROBIAL ACTIVITY (MIC)
Outline: as §3

[13] = tested on: E. coli (25922); test: MIC, micro-broth dilution; type: cell-based; details: Escherichia coli, 35° C., 24 hours, read-out: ANTIMICROBIAL ACTIVITY (MIC)
Outline: as §3

[14] = tested on: P. aeruginosa (10145); test: MIC, micro-broth dilution; type: cell-based; details: Pseudomonas aeruginosa, 35° C., 24 hours, read-out: ANTIMICROBIAL ACTIVITY (MIC)
Outline: as §3

[15] = tested on: K. pneumoniae (13883); test: MIC, micro-broth dilution; type: cell-based; details: Klebsiella pneumoniae, 24 h, read-out: ANTIMICROBIAL ACTIVITY (MIC)
Outline: as §3

[16] = tested on: E. faecalis (29212); test: MIC, micro-broth dilution; type: cell-based; details: Enterococcus faecalis, 35° C., 24 hours, read-out: ANTIMICROBIAL ACTIVITY (MIC)
Outline: as §3

[17] = tested on: A. fumigatus (H1120); test: MIC, micro-broth dilution; type: cell-based; details: Aspergillus fumigatus, 35° C., 24 hours, read-out: ANTIMICROBIAL ACTIVITY (MIC)
Outline: as §3

[18] = tested on: E. cloacae (13047); test: MIC, micro-broth dilution; type: cell-based; details: Enterobacter cloacae, 35° C., 24 hours, read-out: ANTIMICROBIAL ACTIVITY (MIC)
Outline: as §3

[19] = tested on: S. aureus (29213); test: MIC, micro-broth dilution; type: cell-based; details: Staphylococcus aureus, 24 h, read-out: ANTIMICROBIAL ACTIVITY (MIC)
Outline: as §3

[20] = tested on: S. agalactiae (13813); test: MIC, micro-broth dilution; type: cell-based; details: Streptococcus agalactiae, 35° C., 24 hours, read-out: ANTIMICROBIAL ACTIVITY (MIC)
Outline: as §3

[21] = Hemolytic activity, minimal hemolytic concentration (MHC); type: cell-based, sheep; details: sheep red blood cells, 24 hours at 37° C. in saline
Description: (§4) Hemolytic activity of the squalamine mimics according to the present invention were also studied by incubating sheep red blood cells for 24 hours at 37° C. in saline (final concentration of 0.5%) with or without respective concentrations of the squalamine mimics. The minimal hemolytic concentration (MHC) was determined as the lowest concentration of a mimic that raised visible hemolysis.

[22] = tested on: Escherichia coli; test: Bactericidal action; type: cell-based
[23] = tested on: Pseudomonas aeruginosa; test: Bactericidal action; type: cell-based
[24] = tested on: C. neoformans (90012); test: MIC, micro-broth dilution; type: cell-based; details: Cryptococcus neoformans, 24 h, read-out: ANTIMICROBIAL ACTIVITY (MIC)
Outline: as §3

[25] = tested on: S. aureus (H20809); test: MIC, micro-broth dilution; type: cell-based; details: Staphylococcus aureus, 24 h, read-out: ANTIMICROBIAL ACTIVITY (MIC)
Outline: as §3

[26] = tested on: A. fumigatus (H29709); test: MIC, micro-broth dilution; type: cell-based; details: Aspergillus fumigatus, 35° C., 24 hours, read-out: ANTIMICROBIAL ACTIVITY (MIC)
Outline: as §3

[27] = tested on: various groups of microorganisms; test: Antimicrobial activity (MIC), all microorganisms tested; type: cell-based
Description: as §1, §2

[28] = tested on: gram negative rods; test: Enhancement of the antimicrobial activity of rifampin; type: cell-based; details: subinhibitory concentrations of SM-7
[29] = tested on: Staphylococcus aureus; test: Bactericidal action; type: cell-based
[30] = tested on: bacteria; test: Loss of antimicrobial/bactericidal action in presence of albumin; type: cell-based; details: 12.5 μg/ml of SM-7, 40 mg/ml of bovine serum albumin
[31] = tested on: gram negative rods; test: Antimicrobial activity (MIC), gram negative rods; type: cell-based; details: of all the mimics tested
Description: as §1

[32] = tested on: sheep red blood cells; test: Hemolytic activity, minimal hemolytic concentration (MHC); type: cell-based
Description: as §4

[33] = tested on: fungi; test: Antimicrobial activity (MIC), fungi; type: cell-based; details: of all the mimics tested
Description: as §1

[34] = tested on: gram positive cocci; test: Antimicrobial activity (MIC), gram positive cocci; type: cell-based; details: of all the mimics tested
Description: as §1

[35] = tested on: S. aureus (29213); details: S. aureus ATCC 29213; as reported in the literature; cited from earlier work
[36] = tested on: P. vulgaris; details: P. vulgaris ATCC 13883; as reported in the literature; cited from earlier work
[37] = tested on: various groups of microorganisms; details: broad spectrum of microorganisms; cited from earlier work
[38] = tested on: S. marcescens (13880); details: known; cited from earlier work
[39] = tested on: P. aeruginosa (2853); details: P. aeruginosa ATCC 27853; as reported in the literature; cited from earlier work

Row | Compound | MIC [3] [µg/mL] | MIC [4] [µg/mL] | MIC [5] [µg/mL] | MIC [6] [µg/mL] | MIC [7] [µg/mL] | MIC [8] [µg/mL] | MIC [9] [µg/mL] | MIC [10] [µg/mL] | MIC [11] [µg/mL] | MIC [12] [µg/mL] | MIC [13] [µg/mL] | MIC [14] [µg/mL] | MIC [15] [µg/mL] | MIC [16] [µg/mL] | MIC [17] [µg/mL] | MIC [18] [µg/mL] | MIC [19] [µg/mL] | MIC [20] [µg/mL] | minimal hemolytic concentration (MHC) at 24 h [21] [µg/mL] | MIC [24] [µg/mL] | also measured
1 | C[C@H](C(=O)NCCCNCCCCNCCCN)[C@H]1CC[C@H]2[C@@H]3CC=C4C[C@@H](OS(=O)(=O)O)CC[C@]4(C)[C@H]3CC[C@]12C [SM-2, 23,24-bisnor-3β-ol-5-cholenic acid 3-sulfate spermine conjugate] | 12.5 (≈ 20.5 µM) | 12.5 (≈ 20.5 µM) | 3.13 (≈ 5.12 µM) | > 100 | 3.13 (≈ 5.12 µM) | 6.25 (≈ 10.2 µM) | > 100 | 3.13 (≈ 5.12 µM) | > 100 | > 100 | 6.25 (≈ 10.2 µM) | 12.5 (≈ 20.5 µM) | 12.5 (≈ 20.5 µM) | > 100 | 12.5 (≈ 20.5 µM) | > 100 | > 100 | > 100 | > 100 |  | MIC [1]: 12.5 µg/mL (≈ 20.5 µM); MIC [2]: 3.13 µg/mL (≈ 5.12 µM)
2 | C[C@H](CCC(=O)NCCCNCCCCNCCCN)[C@H]1CC[C@H]2[C@@H]3CC[C@@H]4C[C@H](O)CC[C@]4(C)[C@H]3C[C@H](O)[C@]12C [SM-7, deoxycholic acid-spermine conjugate] | 1.56 (≈ 2.7 µM) | 3.13 (≈ 5.43 µM) | 0.78 (≈ 1.35 µM) | 6.25 (≈ 10.8 µM) | 1.56 (≈ 2.7 µM) | 0.78 (≈ 1.35 µM) | 3.13 (≈ 5.43 µM) | 3.13 (≈ 5.43 µM) | 25 (≈ 43.3 µM) | 3.13 (≈ 5.43 µM) | 3.13 (≈ 5.43 µM) | 6.25 (≈ 10.8 µM) | 3.13 (≈ 5.43 µM) | 3.13 (≈ 5.43 µM) | 12.5 (≈ 21.7 µM) | 12.5 (≈ 21.7 µM) | 1.56 (≈ 2.7 µM) | 3.13 (≈ 5.43 µM) | 12.5 | 0.78 (≈ 1.35 µM) | antibacterial action (bactericidal) [22]: bactericidal; antibacterial action (bactericidal) [23]: bactericidal; activity against S. marcescens ([11]; in words): found even against S. marcescens; also recorded: effective against S. marcescens; MIC [25]: 1.56 µg/mL (≈ 2.7 µM); MIC [26]: 12.5 µg/mL (≈ 21.7 µM); antimicrobial activity (in words) [27]: highly active; also recorded: more activity than SM-8, SM-14, and SM-22; enhancement of antimicrobial activity of rifampin [28]: markedly enhanced the antimicrobial activity of rifampin against gram negative rods; antibacterial action (bactericidal) [29]: bactericidal; inhibition of (bactericidal) activity by albumin [30]: completely inhibited; potency ranking against gram negative rods [31]: most potent activity against gram negative rods of all the mimics tested; hemolytic activity (in words) [32]: unwanted hemolytic activity
3 | C[C@H](CCC(=O)NCCCNCCCCNCCCN)[C@H]1CC[C@H]2[C@@H]3CC[C@@H]4C[C@H](O)CC[C@]4(C)[C@H]3CC[C@]12C [SM-25] | 0.78 (≈ 1.39 µM) | 3.13 (≈ 5.58 µM) | 0.39 (≈ 0.695 µM) | 3.13 (≈ 5.58 µM) | 0.39 (≈ 0.695 µM) | 0.78 (≈ 1.39 µM) | 3.13 (≈ 5.58 µM) | 0.78 (≈ 1.39 µM) | > 100 | 12.5 (≈ 22.3 µM) | 1.56 (≈ 2.78 µM) | 3.13 (≈ 5.58 µM) | > 100 | 3.13 (≈ 5.58 µM) | 12.5 (≈ 22.3 µM) | > 100 | 0.78 (≈ 1.39 µM) | 0.78 (≈ 1.39 µM) | 50 | 0.39 (≈ 0.695 µM) | potency ranking against fungi [33]: most potent activity against gram positive cocci and fungi of all the mimics tested; MIC [25]: 0.39 µg/mL (≈ 0.695 µM); MIC [26]: 12.5 µg/mL (≈ 22.3 µM); antimicrobial activity (in words) [27]: highly active; also recorded: more activity than SM-8, SM-14, and SM-22; potency ranking against gram positive cocci [34]: most potent activity against gram positive cocci and fungi of all the mimics tested; hemolytic activity (in words) [32]: unwanted hemolytic activity
4 | CC(C)C(CC[C@@H](C)[C@H]1CC[C@H]2[C@@H]3[C@H](O)C[C@H]4C[C@@H](NCCCNCCCCN)CC[C@]4(C)[C@H]3CC[C@]12C)OS(=O)(=O)O (stereo partly drawn) [squalamine, 3β-N-1-{N-[3-(4-aminobutyl)]-1,3-diaminopropane}-7α,24.zeta.-dihydroxy-5α-cholestane 24-sulfate] |  |  |  |  |  |  |  |  |  |  |  |  |  |  |  |  |  |  |  |  | MIC of squalamine [35]: 1 to 2 µg/mL; MIC of squalamine [36]: 4 to 8 µg/mL; antimicrobial activity of squalamine (in words) [37]: potent antimicrobial activity against a broad spectrum of microorganisms; resistance of S. marcescens to squalamine [38]: known to be resistant to squalamine; MIC of squalamine [39]: 4 to 8 µg/mL
